Experimental data reported in patent publication US8410168B2, “Methods and compositions for treating ophthalmic conditions with retinyl derivatives” (Acucela, Inc., priority 2004, dated 2013).
Values belong to the molecule of their own block, whether it stands above or below them.

Key:
CRALBP [1] = biological target: T1, CRALBP (Homo sapiens, UniProt P12271); experiment: Size exclusion chromatography study of binding to CRALBP; conditions: 4 μM apo-CRALBP, 8 μM ligand
T1 construct: made in house
T1 sequence (P12271 whole entry, species assumed): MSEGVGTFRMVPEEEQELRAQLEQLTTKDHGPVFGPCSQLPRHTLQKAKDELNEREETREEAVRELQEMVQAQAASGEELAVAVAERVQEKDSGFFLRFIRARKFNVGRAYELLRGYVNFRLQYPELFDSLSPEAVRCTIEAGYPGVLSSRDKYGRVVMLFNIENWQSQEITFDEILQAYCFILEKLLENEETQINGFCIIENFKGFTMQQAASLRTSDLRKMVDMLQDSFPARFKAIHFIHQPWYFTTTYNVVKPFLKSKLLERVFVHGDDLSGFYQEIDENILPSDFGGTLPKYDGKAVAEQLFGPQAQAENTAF
Protocol: Apo-CRALBP at 4 μM was incubated with 8 μM of 11cRAL, atRAL or HPR in PBS at room temperature for 1 hour. In control experiment, equivalent volume of DMSO was added to the CRALBP solution. 50 μl of each sample mixture was analyzed by BioRad Bio-Sil SEC125 Gel Filtration Column (300×7.8 mm).

apo-CRALBP = biological target: T2, apo-CRALBP (Homo sapiens, UniProt P12271); experiment: Ni+ affinity column and spectroscopic analysis of binding to CRALBP; conditions: 10 μM apo-CRALBP, 20 μM ligand
T2 construct: made in house
T2 sequence (P12271 whole entry, species assumed): as above
Protocol: In order to confirm data obtained during fluorescence analysis of HPR binding to CRALBP, a second analysis was performed using affinity chromatography and spectroscopic analysis. The recombinant apo-CRALBP was constructed with a histidine tag which is utilized to purify the protein on a Ni+ affinity column following expression cloning. Here, we utilized this feature of apo-CRALBP to specifically “trap” the protein and any protein-ligand species for spectroscopic analysis. Two binding mixtures were prepared containing apo-CRALBP (10 μM) and either 11cRAL (20 μM) or HPR (20 μM). In control experiments for the analysis of non-specific ligand binding onto the affinity matrix, we prepared two additional mixtures containing only 11cRAL (20 μM) or HPR (20 μM) in binding buffer. The binding mixtures were passed through separate Ni+ affinity columns and the columns were washed extensively to elute unbound protein and ligand. Following the addition of elution buffer, the eluted fractions were analyzed by spectroscopy. […] Instead, two absorption maxima are seen: one at 280 nm and a second at 360 nm, which is attributable to the absorption of HPR (see FIG. 14).

CRALBP [2] = biological target: T1, CRALBP; experiment: Fluorescence quenching study of binding to CRALBP
Protocol: Apo-CRALBP at 0.5 μM was incubated with 1 μM of 11-cis Retinal (11cRAL), all-trans retinal (atRAL) or N-4-hydroxyphenyl retinamide (HPR) in PBS at room temperature for 1 hour. As a control, same volume of DMSO was added to the Apo-CRABLP solution. The emission spectra were measured between 290 nm to 500 nm with excitation wavelength at 280 nm and 2 nm bandpass (See FIG. 7).
Quenching of CRALBP protein fluorescence with 11-cis retinal (11cRAL). The fluorescence emission of recombinant apo-CRALBP (0.5 μM) was measured using 280 nm excitation (“no 11cRAL”).
Quenching of CRALBP protein fluorescence with HPR. The data shown were obtained using an experimental design identical to that described above. The fluorescence emission of recombinant apo-CRALBP was measured using 280 nm excitation (“no HPR”).
We performed an analysis of the dissociation constant (KD) for 11cRAL and HPR binding to apo-CRALBP (see FIG. 15). […] This calculation is based upon the ligand concentration necessary to fully quench the protein fluorescence. The data reveal that both 11cRAL and HPR quench apo-CRALBP fluorescence maximally at ˜1.5 μM. Thus, although apo-CRALBP is described as an 11 cis-specific retinoid binding protein, it appears to bind HPR as well.

TTR binding to RBP = TTR binding to RBP (Homo sapiens, UniProt P02753); experiment: Size exclusion study of TTR binding to RBP; conditions: 10 μM RBP, 50 μM MPR, 10 μM TTR
Protocol: Apo-RBP at 10 μM was incubated with 50 μM of MPR in PBS at room temperature for 1 hour. 10 μM of TTR was then added to the solution, and the mixture was incubated for another hour at room temperature. […] of the sample mixtures with and without TTR addition were analyzed by BioRad Bio-Sil SEC 125 Gel Filtration Column (300×7.8 mm). In control experiments, atROL-RBP and atROL-RBP-TTR mixture were analyzed in the same manner.

ABCA4−/− mice = experiment: HPR drug holiday after 28 days of treatment; format: in vivo, mouse; conditions: 28-day drug holiday
Protocol: HPR (10 mg/kg in DMSO) was administered to ABCA4−/− mice daily for a period of 28 days. Control ABCA4−/− mice received only DMSO for the same period. […] Importantly, the observed reductions in lipofuscin autofluorescence persist long after cessation of HPR therapy. HPR (10 mg/kg), or DMSO, administration was discontinued following 28 days of treatment and re-evaluated A2E and precursor levels after 2 weeks and after 4 weeks.
We examined eyecup extracts by HPLC and employed detection by absorbance and fluorimetry. Identity of the indicated peaks was confirmed by on-line spectral analysis and by co-elution with authentic standards. […] Further, the A2E and precursor (A2PE-H2 and A2PE) levels after a […] or 28-day drug holiday remained at or near the levels immediately following 28 days of treatment (i.e., ca. 50% reduction relative to control), although after the 28-day drug holiday, the amount of A2E and precursor (A2PE-H2 and A2PE) had increased by a few percentage points relative to the 12-day drug holiday levels. […] It is clear that peak fluorescence tracks with the abundance of A2E, A2PE and A2PE-H2.
This effect cannot be attributed to long-term reductions in serum retinol as serum retinol had returned to baseline 48 hours following the last HPR dose. […] Furthermore, HPR reduces serum retinol levels, which leads to a reduction in the level of retinol in the eyes of treated animals. Once the level of retinol has been reduced in the eye, there is a time lag in the subsequent increase in retinol levels in the eye. Alone or in combination, the production of A2E, A2PE and A2PE-H2 in the eye remains low despite the absence of HPR in the serum or the eye.

RBP = RBP (Homo sapiens, UniProt P02753); experiment: Fluorescence quenching study of MPR binding to RBP
Protocol: Apo-RBP at 0.5 μM was incubated with 0, 0.25, 0.5, 1 and 2 μM of MPR in PBS at room temperature for 1 hour, respectively. As controls, the same concentration of Apo-RBP was also incubated with 1 μM of HPR or 1 μM of atROL. All mixtures contained 0.2% Ethanol (v/v). The emission spectra were measured between 290 nm to 550 nm with excitation wavelength at 280 nm and 3 nm bandpass.

binding to apo-CRALBP by absorption spectra of eluted fraction (apo-CRALBP): bound to CRALBP | concentration of maximal quenching of apo-CRALBP fluorescence (CRALBP [2]): ~1.5 µM | quenching of CRALBP fluorescence emission (CRALBP [2]; 0.5 μM apo-CRALBP, 1 μM ligand, 1 hour, vs DMSO): highest degree of quenching | concentration dependence of CRALBP protein fluorescence quenching (CRALBP [2]; 0.5 μM recombinant apo-CRALBP, 280 nm excitation): concentration dependent manner | Kd (CRALBP [2]; transformation of fluorescence quenching data, read-out: dissociation constant (KD) for binding to apo-CRALBP): ~0.03 µM
SMILES: CC1=C(/C=C/C(C)=C/C=C/C(C)=C/C=O)C(C)(C)CCC1 [11cRAL, 11-cis retinal]
ligand bound to CRALBP (monomer elution peak absorbance) (CRALBP [1]): a majority of the CRALBP is bound with ligand

binding of ligand-RBP to TTR (TTR binding to RBP): binds to TTR
SMILES: CC1=C(/C=C/C(C)=C/C=C/C(C)=C/CO)C(C)(C)CCC1 [atROL, all-trans retinol]

detection in the eyes after drug holiday (ABCA4−/− mice): unable to detect | binding of ligand-RBP to TTR (TTR binding to RBP): did not bind to TTR | quenching of RBP fluorescence (RBP; 0.5 μM apo-RBP, 0-2 μM MPR): concentration-dependent quenching | concentration at which quenching of RBP fluorescence saturated (RBP; 0.5 μM of RBP): 1 µM | degree of RBP fluorescence quenching compared with other ligands (RBP; 1 μM controls): smaller than those by atROL and HPR
SMILES: COc1ccc(NC(=O)\C=C(C)/C=C/C=C(C)\C=C\C2=C(C)CCCC2(C)C)cc1 (stereo in doubt) [MPR, N-(4-methoxyphenyl)retinamide]

SMILES: CC1=C(/C=C/C(C)=C/C=C/C(C)=C/C=O)C(C)(C)CCC1 [atRAL, all-trans retinal]
ligand bound to CRALBP (monomer elution peak absorbance) (CRALBP [1]): Less than half of the atRAL is bound to CRALBP
